Source: the kinase profiling compilation of Christmann-Franck et al. (2016)
Each block holds one molecule with its values, some of them ahead of it.

Assays:
Assay in all cases: radiometric filter-binding kinase assay, Kinase HotSpot
Conditions in all cases: compound 0.5 µM; ATP 10 µM
GRK6 (human) = GRK6 (human) (UniProt P43250)
RPS6KA6 KD1 KD2 (human) = RPS6KA6 KD1 KD2 (human) (UniProt Q9UK32)
PDPK1 (human) = PDPK1 (human) (UniProt O15530)
GSG2 (human) = GSG2 (human) (UniProt Q8TF76)
CAMK2B (human) = CAMK2B (human) (UniProt Q13554)
FLT3 (human) = FLT3 (human) (UniProt P36888)
FLT3 (human), sequence (P36888 whole entry, looked up): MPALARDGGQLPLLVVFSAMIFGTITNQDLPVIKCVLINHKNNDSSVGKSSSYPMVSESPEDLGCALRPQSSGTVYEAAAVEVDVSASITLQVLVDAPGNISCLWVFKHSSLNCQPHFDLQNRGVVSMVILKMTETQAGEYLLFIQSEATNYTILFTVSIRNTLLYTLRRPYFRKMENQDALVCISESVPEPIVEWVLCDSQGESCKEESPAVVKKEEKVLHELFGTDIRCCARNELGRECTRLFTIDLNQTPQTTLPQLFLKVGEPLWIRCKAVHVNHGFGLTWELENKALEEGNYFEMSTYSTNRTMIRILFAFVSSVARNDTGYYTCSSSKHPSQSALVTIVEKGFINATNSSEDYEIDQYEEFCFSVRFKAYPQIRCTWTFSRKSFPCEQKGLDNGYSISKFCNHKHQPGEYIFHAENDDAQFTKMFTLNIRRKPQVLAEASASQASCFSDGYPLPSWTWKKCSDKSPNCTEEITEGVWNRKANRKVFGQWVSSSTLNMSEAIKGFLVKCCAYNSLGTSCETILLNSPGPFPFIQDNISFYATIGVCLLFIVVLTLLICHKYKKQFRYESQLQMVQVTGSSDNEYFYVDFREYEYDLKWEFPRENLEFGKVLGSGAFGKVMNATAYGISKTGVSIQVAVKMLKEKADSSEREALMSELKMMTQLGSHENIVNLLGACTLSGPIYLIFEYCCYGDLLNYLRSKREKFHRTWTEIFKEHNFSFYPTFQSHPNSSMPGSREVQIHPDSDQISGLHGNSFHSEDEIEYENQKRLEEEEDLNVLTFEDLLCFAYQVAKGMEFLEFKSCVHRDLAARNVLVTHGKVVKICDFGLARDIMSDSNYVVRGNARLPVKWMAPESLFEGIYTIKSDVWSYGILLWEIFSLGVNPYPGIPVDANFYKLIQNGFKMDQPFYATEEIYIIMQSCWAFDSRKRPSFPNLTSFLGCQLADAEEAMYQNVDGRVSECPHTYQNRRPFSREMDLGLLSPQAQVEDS

CDK1 CCNA2 (human) = CDK1 CCNA2 (human) (UniProt P06493+P20248)
MAPK1 (human) = MAPK1 (human) (UniProt P28482)
SRPK3 (human) = SRPK3 (human) (UniProt Q9UPE1)
SRPK3 (human), sequence (Q9UPE1 whole entry, looked up): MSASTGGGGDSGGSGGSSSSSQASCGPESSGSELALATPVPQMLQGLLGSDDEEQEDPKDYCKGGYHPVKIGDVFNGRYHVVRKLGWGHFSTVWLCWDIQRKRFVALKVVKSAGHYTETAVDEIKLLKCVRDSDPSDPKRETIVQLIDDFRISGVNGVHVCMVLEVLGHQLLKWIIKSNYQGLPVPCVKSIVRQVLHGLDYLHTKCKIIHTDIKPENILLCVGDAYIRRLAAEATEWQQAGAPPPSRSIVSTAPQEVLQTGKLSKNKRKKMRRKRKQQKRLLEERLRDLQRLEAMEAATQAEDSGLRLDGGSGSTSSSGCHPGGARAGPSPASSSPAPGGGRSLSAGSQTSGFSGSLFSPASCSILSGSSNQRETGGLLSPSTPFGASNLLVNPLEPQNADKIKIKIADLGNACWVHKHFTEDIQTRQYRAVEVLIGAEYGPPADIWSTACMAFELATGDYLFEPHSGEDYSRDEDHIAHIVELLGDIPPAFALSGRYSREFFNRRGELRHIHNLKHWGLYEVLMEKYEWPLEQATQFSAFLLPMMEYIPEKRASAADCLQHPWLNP

MAPKAPK5 (human) = MAPKAPK5 (human) (UniProt Q8IW41)
ROS1 (human) = ROS1 (human) (UniProt P08922)
PAK3 (human) = PAK3 (human) (UniProt O75914)
CSNK1E (human) = CSNK1E (human) (UniProt P49674)
LCK (human) = LCK (human) (UniProt P06239)
CDK2 CCNE1 (human) = CDK2 CCNE1 (human) (UniProt P24941+P24864)
MAPK11 (human) = MAPK11 (human) (UniProt Q15759)
TTK (human) = TTK (human) (UniProt P33981)
CHUK (human) = CHUK (human) (UniProt O15111)
FYN (human) = FYN (human) (UniProt P06241)
ROCK2 (human) = ROCK2 (human) (UniProt O75116)
CHEK2 (human) = CHEK2 (human) (UniProt O96017)
MAPK14 (human) = MAPK14 (human) (UniProt Q16539)
GRK5 (human) = GRK5 (human) (UniProt P34947)
PRKD3 (human) = PRKD3 (human) (UniProt O94806)
PRKG2 (human) = PRKG2 (human) (UniProt Q13237)
FRK (human) = FRK (human) (UniProt P42685)
MAPK12 (human) = MAPK12 (human) (UniProt P53778)
MAPK12 (human), sequence (P53778 whole entry, looked up): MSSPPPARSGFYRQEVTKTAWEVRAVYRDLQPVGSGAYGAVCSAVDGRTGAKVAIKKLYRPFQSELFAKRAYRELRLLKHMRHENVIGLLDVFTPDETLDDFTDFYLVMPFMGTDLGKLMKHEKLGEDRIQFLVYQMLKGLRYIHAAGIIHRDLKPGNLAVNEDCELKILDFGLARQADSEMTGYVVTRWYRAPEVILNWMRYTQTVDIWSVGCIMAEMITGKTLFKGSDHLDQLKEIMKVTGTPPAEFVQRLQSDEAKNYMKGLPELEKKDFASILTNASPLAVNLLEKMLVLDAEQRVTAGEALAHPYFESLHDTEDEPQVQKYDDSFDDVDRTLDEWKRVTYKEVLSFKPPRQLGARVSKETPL

DAPK1 (human) = DAPK1 (human) (UniProt P53355)
AXL (human) = AXL (human) (UniProt P30530)
AXL (human), sequence (P30530 whole entry, looked up): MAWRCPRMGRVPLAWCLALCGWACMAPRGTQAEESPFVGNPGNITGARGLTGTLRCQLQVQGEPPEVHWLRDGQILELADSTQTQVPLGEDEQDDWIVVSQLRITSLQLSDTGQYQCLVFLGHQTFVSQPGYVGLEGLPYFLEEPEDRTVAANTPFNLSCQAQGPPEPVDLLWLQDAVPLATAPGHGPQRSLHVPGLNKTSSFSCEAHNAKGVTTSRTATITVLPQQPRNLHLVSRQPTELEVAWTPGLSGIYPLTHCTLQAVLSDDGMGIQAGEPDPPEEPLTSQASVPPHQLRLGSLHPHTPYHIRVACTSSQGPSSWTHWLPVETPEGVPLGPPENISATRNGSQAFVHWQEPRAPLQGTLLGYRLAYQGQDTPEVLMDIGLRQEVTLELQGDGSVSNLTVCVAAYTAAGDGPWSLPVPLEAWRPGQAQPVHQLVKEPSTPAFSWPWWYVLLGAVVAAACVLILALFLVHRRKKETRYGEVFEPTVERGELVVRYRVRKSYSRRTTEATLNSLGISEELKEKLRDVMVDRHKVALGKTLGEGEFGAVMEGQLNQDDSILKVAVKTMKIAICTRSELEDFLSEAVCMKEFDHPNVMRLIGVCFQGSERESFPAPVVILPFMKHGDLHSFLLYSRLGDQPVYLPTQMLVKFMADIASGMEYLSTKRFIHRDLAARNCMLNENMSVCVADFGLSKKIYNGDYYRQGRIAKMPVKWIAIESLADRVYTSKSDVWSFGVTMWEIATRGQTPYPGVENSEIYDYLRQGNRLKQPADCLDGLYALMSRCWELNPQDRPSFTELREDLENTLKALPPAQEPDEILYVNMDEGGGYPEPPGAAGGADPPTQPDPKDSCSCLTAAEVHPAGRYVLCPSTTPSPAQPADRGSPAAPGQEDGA

GRK4 (human) = GRK4 (human) (UniProt P32298)
CDK9 CCNK (human) = CDK9 CCNK (human) (UniProt O75909+P50750)
CDK9 CCNK (human), sequence (O75909 whole entry, looked up): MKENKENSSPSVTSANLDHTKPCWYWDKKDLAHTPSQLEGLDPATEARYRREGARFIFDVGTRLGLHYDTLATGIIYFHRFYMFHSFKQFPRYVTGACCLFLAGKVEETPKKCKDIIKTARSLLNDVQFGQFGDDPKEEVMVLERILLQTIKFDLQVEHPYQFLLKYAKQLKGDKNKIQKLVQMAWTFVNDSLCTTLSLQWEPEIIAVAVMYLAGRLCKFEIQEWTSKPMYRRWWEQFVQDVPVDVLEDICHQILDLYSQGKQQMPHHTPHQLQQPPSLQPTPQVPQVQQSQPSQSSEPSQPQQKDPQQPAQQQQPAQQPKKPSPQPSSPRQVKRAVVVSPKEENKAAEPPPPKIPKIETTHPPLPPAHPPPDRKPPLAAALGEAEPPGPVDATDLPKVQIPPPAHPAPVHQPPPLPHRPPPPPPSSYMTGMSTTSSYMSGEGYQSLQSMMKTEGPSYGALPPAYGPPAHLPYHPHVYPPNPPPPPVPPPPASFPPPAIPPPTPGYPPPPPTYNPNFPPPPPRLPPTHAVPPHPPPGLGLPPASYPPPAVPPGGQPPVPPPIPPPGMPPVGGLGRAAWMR
CDK9 CCNK (human), sequence (P50750 whole entry, looked up): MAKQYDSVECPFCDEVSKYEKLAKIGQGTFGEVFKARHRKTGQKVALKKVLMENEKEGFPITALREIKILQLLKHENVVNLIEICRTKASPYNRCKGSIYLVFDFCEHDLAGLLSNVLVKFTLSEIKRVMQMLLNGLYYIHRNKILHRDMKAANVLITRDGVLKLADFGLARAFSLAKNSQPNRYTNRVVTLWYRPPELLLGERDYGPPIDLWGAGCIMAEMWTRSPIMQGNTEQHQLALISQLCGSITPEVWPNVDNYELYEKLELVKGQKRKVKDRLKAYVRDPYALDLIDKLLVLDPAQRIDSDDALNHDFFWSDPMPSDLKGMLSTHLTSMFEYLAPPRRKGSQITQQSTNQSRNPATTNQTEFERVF

PRKCB1 (human) = PRKCB1 (human) (UniProt P05771)
FER (human) = FER (human) (UniProt P16591)
ALK (human) = ALK (human) (UniProt Q9UM73)
PRKX (human) = PRKX (human) (UniProt P51817)
ACVR1B (human) = ACVR1B (human) (UniProt P36896)
MAPK10 (human) = MAPK10 (human) (UniProt P53779)
RPS6KA5 KD2 (human) = RPS6KA5 KD2 (human) (UniProt O75582)
EPHA7 (human) = EPHA7 (human) (UniProt Q15375)
STK24 (human) = STK24 (human) (UniProt Q9Y6E0)
STK24 (human), sequence (Q9Y6E0 whole entry, looked up): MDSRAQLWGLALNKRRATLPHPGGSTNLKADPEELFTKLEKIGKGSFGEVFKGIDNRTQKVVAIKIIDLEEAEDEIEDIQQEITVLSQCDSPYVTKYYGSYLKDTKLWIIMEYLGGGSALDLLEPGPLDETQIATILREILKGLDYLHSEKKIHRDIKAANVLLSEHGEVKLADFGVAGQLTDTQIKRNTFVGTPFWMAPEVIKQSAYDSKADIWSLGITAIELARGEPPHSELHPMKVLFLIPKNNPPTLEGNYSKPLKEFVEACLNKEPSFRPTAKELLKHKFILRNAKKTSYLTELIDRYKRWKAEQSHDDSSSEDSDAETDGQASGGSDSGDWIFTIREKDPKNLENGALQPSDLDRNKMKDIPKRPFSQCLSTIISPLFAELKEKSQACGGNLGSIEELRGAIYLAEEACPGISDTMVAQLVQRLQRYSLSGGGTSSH

CDK6 CCND1 (human) = CDK6 CCND1 (human) (UniProt Q00534+P24385)
ERBB2 (human) = ERBB2 (human) (UniProt P04626)

PDPK1 (human), sequence (O15530 whole entry, looked up): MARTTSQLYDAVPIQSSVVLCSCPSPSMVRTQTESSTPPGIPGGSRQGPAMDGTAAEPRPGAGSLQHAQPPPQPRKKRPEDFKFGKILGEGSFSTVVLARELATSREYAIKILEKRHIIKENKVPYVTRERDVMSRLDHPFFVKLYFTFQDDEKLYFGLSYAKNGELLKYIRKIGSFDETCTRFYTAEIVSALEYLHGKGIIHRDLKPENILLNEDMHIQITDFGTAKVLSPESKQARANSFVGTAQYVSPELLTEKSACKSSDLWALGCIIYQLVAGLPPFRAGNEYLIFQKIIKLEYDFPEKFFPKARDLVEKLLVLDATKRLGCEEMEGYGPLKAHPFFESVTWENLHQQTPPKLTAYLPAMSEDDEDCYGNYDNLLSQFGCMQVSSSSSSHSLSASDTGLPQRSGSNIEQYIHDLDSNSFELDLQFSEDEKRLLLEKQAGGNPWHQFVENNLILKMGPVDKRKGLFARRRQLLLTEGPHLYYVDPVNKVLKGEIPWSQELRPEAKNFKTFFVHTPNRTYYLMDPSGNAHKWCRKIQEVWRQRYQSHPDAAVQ

residual activity (GRK6 (human)): 88.5%
residual activity (RPS6KA6 KD1 KD2 (human)): 70%
residual activity (PDPK1 (human)): 88.2%
residual activity (GSG2 (human)): 85.5%
residual activity (CAMK2B (human)): 91.5%
residual activity (FLT3 (human)): 21.6%
residual activity (CDK1 CCNA2 (human)): 77.5%
residual activity (MAPK1 (human)): 87.9%
residual activity (SRPK3 (human)): 93.9%
residual activity (MAPKAPK5 (human)): 94.9%
residual activity (ROS1 (human)): 105%
residual activity (PAK3 (human)): 99.1%
residual activity (CSNK1E (human)): 55.8%
residual activity (LCK (human)): 53.5%
residual activity (CDK2 CCNE1 (human)): 24.7%
residual activity (MAPK11 (human)): 83.4%
residual activity (TTK (human)): 93.9%
residual activity (CHUK (human)): 98.3%
residual activity (FYN (human)): 20.9%
residual activity (ROCK2 (human)): 91.7%
residual activity (CHEK2 (human)): 75.8%
residual activity (MAPK14 (human)): 99.2%
residual activity (GRK5 (human)): 104%
residual activity (PRKD3 (human)): 84.9%
residual activity (PRKG2 (human)): 91.4%
residual activity (FRK (human)): 51.2%
residual activity (MAPK12 (human)): 85.2%
residual activity (DAPK1 (human)): 86.8%
residual activity (AXL (human)): 88%
residual activity (GRK4 (human)): 97.6%
residual activity (CDK9 CCNK (human)): 64.3%
residual activity (PRKCB1 (human)): 105%
residual activity (FER (human)): 86.4%
residual activity (ALK (human)): 86.7%
residual activity (PRKX (human)): 99.9%
residual activity (ACVR1B (human)): 98.2%
residual activity (MAPK10 (human)): 83%
residual activity (RPS6KA5 KD2 (human)): 83.9%
residual activity (EPHA7 (human)): 97.9%
residual activity (STK24 (human)): 70.9%
residual activity (CDK6 CCND1 (human)): 53.2%
residual activity (ERBB2 (human)): 114%
Structure (SMILES): CC(=O)O/N=C1\C(=C2\C(=O)Nc3cc(Br)ccc32)Nc2ccccc21

Structure (SMILES): COc1cc2ncnc(N3CCN(C(=O)Nc4ccc(Oc5ccccc5)cc4)CC3)c2cc1OC
residual activity (GRK6 (human)): 96.4%
residual activity (RPS6KA6 KD1 KD2 (human)): 92%
residual activity (PDPK1 (human)): 92.3%
residual activity (GSG2 (human)): 93.2%
residual activity (CAMK2B (human)): 96.3%
residual activity (FLT3 (human)): 43.2%
residual activity (CDK1 CCNA2 (human)): 92.3%
residual activity (MAPK1 (human)): 83.9%
residual activity (SRPK3 (human)): 97.3%
residual activity (MAPKAPK5 (human)): 118%
residual activity (ROS1 (human)): 89.7%
residual activity (PAK3 (human)): 98.1%
residual activity (CSNK1E (human)): 94.6%
residual activity (LCK (human)): 92.3%
residual activity (CDK2 CCNE1 (human)): 92.1%
residual activity (MAPK11 (human)): 99.6%
residual activity (TTK (human)): 98.3%
residual activity (CHUK (human)): 96%
residual activity (FYN (human)): 112%
residual activity (ROCK2 (human)): 125%
residual activity (CHEK2 (human)): 102%
residual activity (MAPK14 (human)): 81%
residual activity (GRK5 (human)): 82.2%
residual activity (PRKD3 (human)): 97.5%
residual activity (PRKG2 (human)): 97.5%
residual activity (FRK (human)): 90.2%
residual activity (MAPK12 (human)): 94.7%
residual activity (DAPK1 (human)): 97.5%
residual activity (AXL (human)): 91.7%
residual activity (GRK4 (human)): 94.7%
residual activity (CDK9 CCNK (human)): 83.6%
residual activity (PRKCB1 (human)): 94.5%
residual activity (FER (human)): 99.8%
residual activity (ALK (human)): 101%
residual activity (PRKX (human)): 99.3%
residual activity (ACVR1B (human)): 94.7%
residual activity (MAPK10 (human)): 98.2%
residual activity (RPS6KA5 KD2 (human)): 96.4%
residual activity (EPHA7 (human)): 96.8%
residual activity (STK24 (human)): 99.6%
residual activity (CDK6 CCND1 (human)): 95.1%
residual activity (ERBB2 (human)): 100%

Structure (SMILES): COc1ccc(OC)c2c(=S)c3ccccc3[nH]c12
residual activity (GRK6 (human)): 97.2%
residual activity (RPS6KA6 KD1 KD2 (human)): 85.2%
residual activity (PDPK1 (human)): 94.9%
residual activity (GSG2 (human)): 89.2%
residual activity (CAMK2B (human)): 104%
residual activity (FLT3 (human)): 71%
residual activity (CDK1 CCNA2 (human)): 96.2%
residual activity (MAPK1 (human)): 91.5%
residual activity (SRPK3 (human)): 96.8%
residual activity (MAPKAPK5 (human)): 109%
residual activity (ROS1 (human)): 103%
residual activity (PAK3 (human)): 98%
residual activity (CSNK1E (human)): 90.3%
residual activity (LCK (human)): 94.7%
residual activity (CDK2 CCNE1 (human)): 77.9%
residual activity (MAPK11 (human)): 86.7%
residual activity (TTK (human)): 99.1%
residual activity (CHUK (human)): 94.3%
residual activity (FYN (human)): 101%
residual activity (ROCK2 (human)): 90.4%
residual activity (CHEK2 (human)): 117%
residual activity (MAPK14 (human)): 104%
residual activity (GRK5 (human)): 108%
residual activity (PRKD3 (human)): 94.1%
residual activity (PRKG2 (human)): 62.2%
residual activity (FRK (human)): 88.8%
residual activity (MAPK12 (human)): 98.1%
residual activity (DAPK1 (human)): 106%
residual activity (AXL (human)): 103%
residual activity (GRK4 (human)): 103%
residual activity (CDK9 CCNK (human)): 92.2%
residual activity (PRKCB1 (human)): 101%
residual activity (FER (human)): 84%
residual activity (ALK (human)): 105%
residual activity (PRKX (human)): 93.5%
residual activity (ACVR1B (human)): 108%
residual activity (MAPK10 (human)): 108%
residual activity (RPS6KA5 KD2 (human)): 86%
residual activity (EPHA7 (human)): 89.7%
residual activity (STK24 (human)): 78.9%
residual activity (CDK6 CCND1 (human)): 102%
residual activity (ERBB2 (human)): 93.6%
